# Measured values published in PubChem BioAssay (NCI).
#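 Assay format: 96-well plates, 48-hour exposure. Abbreviation: GI50, concentration required for 50% inhibition of growth. TGI: total growth inhibition.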
# Legend:
# Test in all cases: NCI-60 cell line screen, 48 h
# EKVX NSCLC = test system: EKVX NSCLC
# U251 CNS = test system: U251 CNS
# SNB-75 CNS = test system: SNB-75 CNS
# MOLT-4 leukemia = test system: MOLT-4 leukemia
# UACC-62 melanoma = test system: UACC-62 melanoma
# SR leukemia = test system: SR leukemia
# ACHN renal = test system: ACHN renal
# CAKI-1 renal = test system: CAKI-1 renal
# UO-31 renal = test system: UO-31 renal
# NCI-H226 lung = test system: NCI-H226 lung
SMILES,GI50 (EKVX NSCLC) [nM],TGI (EKVX NSCLC) [µM],GI50 (U251 CNS) [nM],TGI (U251 CNS) [µM],GI50 (SNB-75 CNS) [nM],TGI (SNB-75 CNS) [µM],GI50 (MOLT-4 leukemia) [nM],TGI (MOLT-4 leukemia) [µM],GI50 (UACC-62 melanoma) [nM],TGI (UACC-62 melanoma) [µM],GI50 (SR leukemia) [nM],TGI (SR leukemia) [µM],GI50 (ACHN renal) [nM],TGI (ACHN renal) [µM],GI50 (CAKI-1 renal) [nM],TGI (CAKI-1 renal) [µM],GI50 (UO-31 renal) [nM],TGI (UO-31 renal) [µM],TGI (NCI-H226 lung) [µM],GI50 (NCI-H226 lung) [nM]
COc1cc2c(cc1OCCCOc1cc3c(cc1OC)C(=O)N1CC(F)(F)C[C@H]1C=N3)N=C[C@@H]1CC(F)(F)CN1C2=O,1660,7.06,166,11.4,1580,18.4,38.3,1.72,365,1.82,< 26.1,0.508,973,13.9,185,0.708,1240,> 33.1,,
NCc1ccc(O)c(O)c1O,,> 100,,52.6,,> 100,,64.9,,> 67.3,,62,,55.4,,> 46.4,,> 100,> 66.7,
CN(C)C=O.CN(C)C=O.CN1C(C(=O)Nc2ccccn2)=C([O-])c2ccccc2S1(=O)=O.CN1C(C(=O)Nc2ccccn2)=C([O-])c2ccccc2S1(=O)=O.[Cu+2],,> 100,,> 100,,49.5,,,,41.2,,> 100,,> 100,,,,> 100,,
CCc1cc(C)cc2[n+]1CC=C2C,,> 100,,> 100,,> 100,,,,,,,,> 100,,> 100,,> 100,> 100,
Cn1ncc2c(=O)[nH]c(-c3ccccc3)nc21,,> 100,,> 100,,> 100,,> 100,,> 100,,,,> 100,,> 100,,> 100,,
O=C(O)\C=C/C=C/C=C/C=C/C(=O)O,,> 100,,> 100,,> 100,,> 100,,> 100,,> 100,,> 100,,> 100,,> 100,> 100,
NC(CCCNc1ccc(O)cc1)C(=O)O (stereo unspecified),,> 88.8,,> 100,,> 100,,56.9,,38.2,,55.8,,> 57.4,,> 100,,> 100,> 100,
CC(C)C(C)C(O)C(O)C(C)C1CCC2C3COC(=O)C4CC(O)C(O)CC4(C)C3CCC12C (stereo unspecified),,> 100,,> 100,,,,59.1,,> 100,,,,> 100,,26.3,,> 100,> 100,
CC1(C)CCCC2(C)C3=C(CCC12)C(=O)OC3 (stereo unspecified),,> 100,,> 100,,> 100,,> 100,,> 100,,> 100,,> 100,,> 100,,> 100,> 100,
COC(=O)C12OCC34C(CC5C(C)C6=CC(=O)OC6=CC5(C)C3C(O)C1O)OC(=O)C(OC(C)=O)C24 (stereo unspecified),,31,,57.8,14700,42.1,,45.6,,21.9,,64.6,,38.9,,25.2,,46,53.2,
O=C(Nc1ccc(-n2ccc3c(NC(=O)c4ccccc4)ncnc32)cc1)Nc1ccc(Cl)c(C(F)(F)F)c1,1970,4.99,1200,2.55,1670,8.08,1870,4.82,1900,4.59,1740,4.76,1580,3.62,1690,3.81,2040,4.73,7.06,2390
N=C(N)SC(c1ccccc1)c1ccccc1,,33.6,,29.4,,,,56.6,,30.8,,> 100,,29.8,,29.4,,23.2,60.9,
Cc1cc(N2CCCCC2)nc(NCc2cc(Nc3ccnc4cc(Cl)ccc34)ccc2F)n1,1620,3.77,1710,3.15,1390,2.83,1670,4.82,1620,3.44,1940,4.99,1660,3.25,1740,3.32,1610,3.13,4.57,2020
NS(=O)(=O)c1ccc(C(=O)O)cc1,,> 100,,> 100,,,,> 100,,> 100,,,,> 100,,> 100,,> 100,,
Cc1nc2ccccc2c(=O)n1Nc1ccc(C(=O)O)cc1,,> 100,,> 100,,> 100,,> 100,,> 100,,,,,,> 100,,> 100,> 100,
O=C1CC(c2ccccc2)NCCCCN2CC(CN1)C(C(O)c1ccccc1)C2=O (stereo unspecified),,> 100,,> 100,,> 100,,> 100,,> 100,,> 100,,> 100,,> 100,,> 100,> 100,
CC(C)(c1ccccc1)c1ccc(Oc2ccc3c(c2)-c2nc-3nc3[nH]c(nc4nc(nc5[nH]c(n2)c2ccc(Oc6ccc(C(C)(C)c7ccccc7)cc6)cc52)-c2cc(Oc5ccc(C(C)(C)c6ccccc6)cc5)ccc2-4)c2ccc(Oc4ccc(C(C)(C)c5ccccc5)cc4)cc32)cc1,,> 100,,> 100,,67.8,,> 100,,> 100,,,,> 100,,,,> 100,,
COc1ccc(C(=O)NNC(=O)c2nsc3ccccc23)cc1,,> 100,,> 100,,,,> 100,,> 100,,,,,,,,> 100,,
Nc1ccc([As](=O)(O)O)cc1,,> 100,,> 100,,> 100,,> 100,,> 100,,> 100,,> 100,,> 100,,> 100,> 100,
Cc1cccc(NC(N)=S)c1,,> 100,,> 100,,> 100,,> 100,,> 100,,> 100,,> 100,,,,> 100,,
COc1ccc2c(c1)C(=O)c1c-2n(CCCCl)c(=O)c2cc([N+](=O)[O-])ccc12,30800,> 100,< 10,0.476,,> 100,< 21.1,,,1.81,< 12.5,,< 10,,242,0.959,,,> 100,< 10
